# In patent publication US11324724B2, “N-(2,2-difluoroethyl)-N-[(pyrimidinylamino)propanyl]arylcarboxamides” (Boehringer Ingelheim International GmbH, priority 2017, dated 2022):
# Legend:
# human MDR1 P-gp = assay: Assay D: efflux in MDCK cells transfected with the human MDR1 gene; type: in vitro ADME, canine; conditions: dog; MDCK-MDR1, pH 7.4, 37° C.; read-out: Assay D: MDCK efflux ratio (BA/AB)
# Method: The MDCK assay provides information on the potential of a compound to pass the blood brain barrier. Permeability measurements across polarized, confluent MDCK-MDR1 cell monolayers grown on permeable filter supports are used as an in vitro absorption model: apparent permeability coefficients (PE) of the compounds across the MDCK-MDR1 cell monolayers are measured (pH 7.4, 37° C.) in apical-to-basal (AB) and basal-to-apical (BA) transport direction.
# The AB permeability (PEAB) represents drug absorption from the blood into the brain and the BA permeability (PEBA) drug efflux from the brain back into the blood via both, passive permeability as well as active transport mechanisms mediated by efflux and uptake transporters that are expressed on the MDCK-MDR1 cells, predominantly by the overexpressed human MDR1 P-gp. Identical or similar permeabilities in both transport directions indicate passive permeation, vectorial permeability points to additional active transport mechanisms. Higher PEBA than PEAB (PEBA/PEAB>5) indicates the involvement of active efflux mediated by MDR1 P-gp, which might compromises the goal to achieve sufficient brain exposure. Therefore this assay provides valuable support for selection of compounds applicable for further in vivo testing. High permeability not limited by efflux at the blood brain barrier is a favourable characteristic for compounds that are to be used for drugs acting primarily in the CNS
# D. Assessment of Efflux in Madin-Darby Canine Kidney (MDCK) Cells Transfected with the Human MDR1 Gene
# Apparent permeability coefficients (PE) of the compounds across the MDCK-MDR1 cell monolayers are measured (pH 7.4, 37° C.) in apical-to-basal (AB) and basal-to-apical (BA) transport direction. AB permeability (PEAB) represents drug absorption from the blood into the brain and BA permeability (PEBA) drug efflux from the brain back into the blood via both passive permeability as well as active transport mechanisms mediated by efflux and uptake transporters that are expressed on the MDCK-MDR1 cells, predominantly by the overexpressed human MDR1 P-gp. The compounds are assigned to permeability/absorption classes by comparison of the AB permeabilities with the AB permeabilities of reference compounds with known in vitro permeability and oral absorption in the human. Identical or similar permeabilities in both transport directions indicate passive permeation, vectorial permeability points to additional active transport mechanisms. Higher PEBA than PEAB indicates the involvement of active efflux mediated by MDR1 P-gp. Active transport is concentration-dependently saturable.
# MDCK-MDR1 cells (1-2×10 e5 cells/1 cm2 area) are seeded on filter inserts (Costar transwell polycarbonate or PET filters, 0.4 μm pore size) and cultured (DMEM) for 7 days. Subsequently, the MDR1 expression is boosted by culturing the cells with 5 mM sodium butyrate in full medium for 2 days. Compounds are dissolved in appropriate solvent (like DMSO, 1-20 mM stock solutions). Stock solutions are diluted with HTP-4 buffer (128.13 mM NaCl, 5.36 mM KCl, 1 mM MgSO4, 1.8 mM CaCl2, 4.17 mM NaHCO3, 1.19 mM Na2HPO4×7H2O, 0.41 mM NaH2PO4×H2O, 15 mM HEPES, 20 mM glucose, 0.25% BSA, pH 7.4) to prepare the transport solutions (0.1-300 μM compound, final DMSO<=0.5%). The transport solution (TL) is applied to the apical or basolateral donor side for measuring A-B or B-A permeability (3 filter replicates), respectively. The receiver side contains the same buffer as the donor side. Samples are collected at the start and end of experiment from the donor and at various time intervals for up to 2 hours also from the receiver side for concentration measurement by HPLC-MS/MS or scintillation counting. Sampled receiver volumes are replaced with fresh receiver solution.
# OX2R = target: T1, OX2R (Homo sapiens, UniProt O43614); conditions: cited from earlier work
# T1 sequence (O43614 1-444): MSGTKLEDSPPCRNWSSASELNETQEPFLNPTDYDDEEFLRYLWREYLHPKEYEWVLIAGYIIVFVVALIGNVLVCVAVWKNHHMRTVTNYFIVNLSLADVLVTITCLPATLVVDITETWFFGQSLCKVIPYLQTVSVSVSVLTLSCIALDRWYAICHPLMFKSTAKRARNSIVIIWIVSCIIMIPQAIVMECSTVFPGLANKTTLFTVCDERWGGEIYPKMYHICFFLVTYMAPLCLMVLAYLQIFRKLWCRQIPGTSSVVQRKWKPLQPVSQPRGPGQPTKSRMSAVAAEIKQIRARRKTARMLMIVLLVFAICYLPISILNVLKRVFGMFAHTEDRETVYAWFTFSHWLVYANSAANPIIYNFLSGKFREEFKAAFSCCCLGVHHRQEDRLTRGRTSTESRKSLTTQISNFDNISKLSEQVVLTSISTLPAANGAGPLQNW
# [1] = Assay C: metabolic stability in human liver microsomes (Human MST); type: in vitro ADME; conditions: pH 7.6, pooled human liver microsomes, 37° C., read-out: Assay C: Human MST t1/2
# Method: C. Assessment of Metabolic Stability in Human Liver Microsomes (Human MST)
# The metabolic stability of the compounds according to the invention may be investigated as follows:
# The metabolic degradation of the test compound is assayed at 37° C. with pooled human liver microsomes. The final incubation volume of 100 μL per time point contains TRIS buffer pH 7.6 at room temperature (0.1 M), MgCl2 (5 mM), microsomal protein (1 mg/mL) and the test compound at a final concentration of 1 μM. Following a short pre-incubation period at 37° C., the reactions are initiated by addition of beta-nicotinamide adenine dinucleotide phosphate, reduced form (NADPH, 1 mM), and terminated by transferring an aliquot into solvent after different time points. After centrifugation (10000 g, 5 min), an aliquot of the supernatant is assayed by LC-MS/MS for the amount of parent compound. The half-life (t1/2) is determined by the slope of the semi-logarithmic plot of the concentration-time profile.
# human Orexin 1 receptor = target: T2, human Orexin 1 receptor (Homo sapiens, UniProt O43613); assay: Assay A: in vitro testing of OX1R potency, OX1R IP1; type: cell-based; conditions: for Kb: 0.5 nM Orexin A concentration; for OX2R Kb/OX1R Kb: selectivity ratio of Assay B and Assay A Kb
# T2 construct: stably expressing the full-length human Orexin 1 receptor; expressed in transfected cells; host or cells: CHO-K1 (CHO-K1/hOx1), co-expressing aequorin
# T2 sequence (O43613 1-425): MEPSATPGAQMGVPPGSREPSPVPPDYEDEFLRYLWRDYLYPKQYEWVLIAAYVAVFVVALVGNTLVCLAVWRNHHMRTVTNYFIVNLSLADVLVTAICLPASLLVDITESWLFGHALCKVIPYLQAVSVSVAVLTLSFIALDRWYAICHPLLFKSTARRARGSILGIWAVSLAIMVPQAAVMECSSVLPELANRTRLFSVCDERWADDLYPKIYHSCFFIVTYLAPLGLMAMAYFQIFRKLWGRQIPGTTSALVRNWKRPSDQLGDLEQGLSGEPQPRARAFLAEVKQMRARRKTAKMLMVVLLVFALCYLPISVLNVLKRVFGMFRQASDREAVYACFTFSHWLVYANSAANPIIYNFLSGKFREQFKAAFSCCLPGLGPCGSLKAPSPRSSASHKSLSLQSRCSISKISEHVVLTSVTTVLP
# From the text: (§1) Activation of the orexin receptors expressed in cell lines results in an increase in intracellular IP3 concentration. IP1, a downstream metabolite of IP3, accumulates in cells following receptor activation and is stable in the presence of LiCl. Using Homogeneous Time-Resolved Fluorescence technology with Lumi4-Tb cryptate (commercially available from Cisbio Bioassay.) and a suitable fluorescence plate reader. This functional response is detectable and quantifiable as described in Trinquet et al. Anal. Biochem. 2006, 358, 126-135, Degorce et al. Curr. Chem. Genomics 2009, 3, 22-32. This technique is used to characterize pharmacological modification of the orexin receptors.
# A. In Vitro Testing of OX1R Potency: OX1R IP1
# IP1 measurements are performed in CHO-K1 cells stably expressing the full-length human Orexin 1 receptor and the aequorin photoprotein. Cells are cultivated in Ham's nutrient mixture F12 medium with 10% fetal calf serum, in a 37° C., 95% humidity and 5% CO2 incubator. The CHO-K1/hOx1 cell mass is expanded to larger cell numbers. The cells are obtained as frozen cells in cryo-vials and stored until use at −150° C. The viability of the cells after thawing is >90%. In preparation for the assay, 24 hours before the assay, the cells are thawed at 37° C. and immediately diluted with cell culture medium. After centrifugation, the cell pellet is re-suspended in medium and then distributed into the assay plates with a density of 10000 cells/25 μL per well. The plates are incubated for one hour at room temperature to reduce edge effects before they are incubated for 24 hours at 37° C./5% CO2. Compounds are prepared by an 8-point serial dilution in DMSO and a final dilution step into assay buffer (HBSS with 20 mM HEPES, 0.1% BSA and 50 mM LiCl, pH 7.4) to ensure a final DMSO concentration of 1% in the assay.
# On the day of the assay, cells in the plate are washed twice with 60 μL assay buffer (20 μL buffer remained in the wells after washing), followed by adding 5 μL per well of compounds diluted in assay buffer. After 15 minutes of incubation at room temperature 5 μL per well of Orexin A peptide (final concentration: 0.5 nM, and/or 50 nM) dissolved in assay buffer is added to the assay plate. The assay plate is incubated for 60 minutes at 37° C. Then 5 μl per well of Anti-IP1-Cryptate Tb solution and 5 μl per well of IP1-d2 dilution are added and the plate is incubated for a further 60 minutes light protected at room temperature. The emissions at 615 nm and 665 nm (Excitation wavelength: 320 nm) are measured using an EnVision reader (PerkinElmer). The ratio between the emission at 665 nm and 615 is calculated by the reader.
# (§2) 8-point four parametric non-linear curve fitting and determination of IC50 values and Hill slopes is performed using a regular analysis software e.g. AssayExplorer (Accelrys). In order to establish an agonist concentration independent parameter, Kb values are calculated using the following equation: IC50/((2+(A/EC50)^n)^1/n−1) (with A=concentration agonist, EC50=EC50 agonist, n=Hill slope agonist) (see P. Leff, I. G. Dougall, Trends Pharmacol. Sci. 1993, 14(4),110-112).
# human orexin 2 receptor = target: T3, human orexin 2 receptor (Homo sapiens, UniProt O43614); assay: Assay B: in vitro testing of OX2R potency, OX2R IP1; type: cell-based; conditions: 0.5 nM Orexin A concentration
# T3 construct: stably expressing the full-length human orexin 2 receptor; expressed in transfected cells; host or cells: CHO-K1 (CHO-K1/hOx2), co-expressing aequorin
# T3 sequence (O43614 1-444): T1 sequence (O43614 1-444)
# From the text: as §1
# B. In Vitro Testing of OX2R Potency: OX2R IP1
# IP1 measurements are performed in CHO-K1 cells stably expressing the full-length human orexin 2 receptor and the aequorin photoprotein. Cells are cultivated in Ham's nutrient mixture F12 medium with 10% fetal calf serum, in a 37° C., 95% humidity and 5% CO2 incubator. The CHO-K1/hOx2 cell mass is expanded to larger cell numbers. The cells are obtained as frozen cells in cryo-vials and stored until use at −150° C. The viability of the cells after thawing is >90%. In preparation for the assay, 24 hours before the assay, the cells are thawed at 37° C. and immediately diluted with cell culture medium. After centrifugation, the cell pellet is resuspended in medium and then distributed into the assay plates with a density of 5000 cells/25 μper well. The plates are incubated for one hour at room temperature to reduce edge effects before they are incubated for 24 hours at 37° C./5% CO2. Compounds are prepared by a 8-point serial dilution in DMSO and a final dilution step into assay buffer (HBSS with 20 mM HEPES, 0.1% BSA and 50 mM LiCl, pH 7.4) to ensure a final DMSO concentration of 1% in the assay. On the day of the assay, cells in the plate are washed twice with 60 μL assay buffer (20 μL buffer remained in the wells after washing), followed by adding 5 μL per well of compounds diluted in assay buffer. After 15 minutes of incubation at room temperature 5 μL per well of Orexin A peptide (final concentration: 0.5 nM) dissolved in assay buffer is added to the assay plate. The assay plate is incubated for 60 minutes at 37° C. Then 5 μl per well of Anti-IP1-Cryptate Tb solution and 5 μl per well of IP1-d2 dilution are added to all well of the plate and the plate is incubated for a further 60 minutes light protected at room temperature. The emission at 615 nm and 665 nm (Excitation wavelength: 320 nm) are measured using an EnVision reader (PerkinElmer). The ratio between the emission at 665 nm and 615 is calculated by the reader.
# as §2
Compound,efflux ratio (human MDR1 P-gp),"OX2R pIC50 (OX2R; as described in WO2016/034882, Table 3)","IC50 (OX2R; corresponds to pIC50 of WO2016/034882, Table 3) [µM]",half-life at 1 μM [1] [min],Kb (human Orexin 1 receptor) [nM],OX2R Kb/OX1R Kb (human Orexin 1 receptor),Kb (human orexin 2 receptor) [nM]
"CC[C@@H](CNc1ncc(C(F)(F)F)cn1)N(C)C(=O)c1nc(C)ccc1-c1ncccn1 [Ex 84 in WO2016/ 034882, reference compound]",< 3,–,–,–,–,–,–
CC[C@@H](CNc1ncc(C(F)(F)F)cn1)N(C)C(=O)c1c(F)cccc1-n1nccn1 [Ex 91 in WO2016/ 034882],< 3,< 5.1,≥ 7.95,> 130,–,–,–
C[C@@H](CNc1ncc(C(F)(F)F)cn1)N(CC(F)F)C(=O)c1cc(F)cc(F)c1-n1nccn1 [Example 1],< 3,–,–,> 130,1.17,214,251
C[C@@H](CNc1ncc(C(F)(F)F)cn1)N(CC(F)F)C(=O)c1cccc(F)c1-n1nccn1 [Example 2],< 3,–,–,> 130,0.63,138,87.1
C[C@@H](CNc1ncc(C(F)(F)F)cn1)N(CC(F)F)C(=O)c1cccc(F)c1-c1ncccn1 [Example 3],< 3,–,–,> 130,0.19,568,108
C[C@@H](CNc1ncc(C(F)(F)F)cn1)N(CC(F)F)C(=O)c1cc(F)ccc1-c1ncccn1 [Example 4],< 3,–,–,> 130,0.42,169,70.8
C[C@@H](CNc1ncc(C(F)(F)F)cn1)N(CC(F)F)C(=O)c1c(F)cccc1-c1ncccn1 [Example 5],< 3,–,–,> 130,0.67,213,143
